“Also recorded” adds a separate entry of the source.

Data set [1] concerns MCF-7^adr cells. Put plainly: Fluorescent microscopy of contrast agent uptake. The class given is cell-based, Human. The procedure:
(§1) Cells were treated with 100 μg/ml DMCD prior to the exposure to Tat-GdDOTA-TAMRA. An Eclipse E400 microscope with a C-SHG1 super high pressure mercury lamp and a Coolpix 5000 digital camera (Nikon Inc., Tokyo, Japan) was used for fluorescent microscopy. Exposure time= 1/15 s, magnification=×40.
(§2) In addition to the above experiments, collected cell pellets were incubated with 250 μl of Tat-GdDOTA-TAMRA (0.5 mg/ml in EMEM) for 20 min at 37° C. in the 5% CO2 incubator. After consecutive washing with PBS, cells were fixed in 3% paraformaldehyde for 15 min. As a control, cells were incubated with EMEM alone. To inhibit multidrug resistance mechanisms, 100 μM of DMCD was added to cells for 20 min prior to exposure to Tat-GdDOTA-TAMRA. In each step, cells were washed thoroughly. TAMRA fluorescence was detected in the orange-red region using band-selective emission filters centered around 600 nm.

Data set [2] concerns MCF-7^adr cells. In words: Flow cytometry (FACS) of contrast agent uptake. It is filed as cell-based, Human. The procedure: FIG. 4 is a graph showing fluorescence detection of Tat-GdDOTA-TAMRA taken up by MCF-7^wt and MCF-7^adr cells after exposure to 0.5 mg/ml of same for 20 min. Dotted lines represent controls (line “a”: MCF-7^wt; line “b”: MCF-7^adr). Solid lines represent the cells treated with Tat-GdDOTA-TAMRA (line “c”: MCF-7^wt; line “d”: MCF-7^adr). […] A FACSCalibur (Becton Dickinson Biosciences, San Jose, Calif., U.S.A.) was used for flow cytometry. Acquisition and analysis were performed with Cell Quest software (Becton Dickinson Biosciences, San Jose, Calif., U.S.A.).
as §2

Data set [3] in a line: MRI relaxation times of water sample doped with GdDTPA. It is filed as physicochemical. The conditions noted are these: water sample doped with GdDTPA (0.05 M).
The test system of a further data set is wild type KB tumor. The following applies: cited from earlier work.
Data set [4] is described as follows: T1 relaxivity of the agent at 9.4T. It is filed as physicochemical. An excerpt:
(§3) Materials. An HIV-1 Tat basic domain peptide-GdDOTA-carboxytetramethylrhodamine conjugates (Tat-GdDOTA-TAMRA, MW=2,989; as shown in FIG. 1) was custom-synthesized by Global Peptide Services, LLC (Fort Collins, Colo., U.S.A.). The specific T1 relaxivity (R,) of the agent at 9.4T is 4.9 (sec·mM)^−1. Monoclonal anti-P-gp [P-7965], streptavidin-QR conjugates [S-2899], and rhodamine 123 [R-8004] were purchased from Sigma Chemical Company (St. Louis, Mo., U.S.A.). Heptakis-(2,6-di-O-methyl)-β-cyclodextrin (DMCD) and cyclosporin A were purchased from Sigma-Aldrich Co. (St. Louis, Mo., U.S.A.). 4′,6-diamidino-2-phenylindole (DAPI) was obtained from Invitrogen Corp. (Carlsbad, Calif., U.S.A.). All other chemicals were obtained as reagent-grade products. Cell lines. Human breast adenocarcinoma (MCF-7^wt) and its multi-drug-resistant variant (MCF-7^adr) were maintained in Eagle's minimum essential medium (EMEM) with 1% penicillin, streptomycin, and 10% fetal bovine serum at 37° C. with 5% CO2. For MCF-7^adr cells, the growth medium was supplemented with 1.5 μM of adriamycin every medium change. Flow cytometry and fluorescent microscopy. Initially, to check P-gp expression and P-gp function of both cell lines, flow cytometry was implemented using a double staining technique as follows. […]

For data set [5], the system named is MCF-7^adr cells. Put plainly: In vitro MRI T1 measurement of labeled cells. It is filed as cell-based, Human. How it is done:
as §2
(§4) Confocal microscopy. MCF-7^wt and MCF-7^adr cell lines were separately seeded in each 4-chamber glass slide (Nalge Nunc International Corp., Naperville, Ill., U.S.A.). Cells were incubated with 250 μl of Tat-GdDOTA-TAMRA (10 μg/ml) for 30 min in the 5% CO2 incubator. Cell nuclei were stained with DAPI ([…]) for 5 min. Cells were fixed with 3% paraformaldehyde for 15 min, and mounted under a coverslip following removal of plastic chambers. Confocal studies were performed with an inverted Zeiss LSM 410 confocal microscope (Carl Zeiss AG, Jena, Germany) using a 40× water immersion lens. In vitro MRI study. For the in vitro MRI study, the cell labeling procedure followed the protocol used for flow cytometry and microscopy studies, except that 20 µM of cyclosporin A was used, rather than DMCD as a multidrug resistance inhibitor. Cell suspensions were transferred into micro-centrifuge PCR tubes. MRI was carried out on a Bruker horizontal bore 9.4T spectrometer (Bruker Biospin GmbH, Rheinstetten, Germany) equipped with shielded gradients. The Paravision 3.0.2 program (Bruker Biospin GmbH) was used as acquisition software. […] Quantitative T1, maps of the samples were reconstructed using custom-written software in the IDL programming environment Research Systems Inc., Boulder, Colo., U.S.A.) that runs on Linux workstations. Final analysis was performed with the Image) program. (NIH, Bethesda, Md., U.S.A.).

The test system of data set [6] is MCF-7^wt cells. In words: In vitro MRI T1 measurement of labeled cells. The class given is cell-based, Human. How it is done:
as §2, §4

In data set [7] the test system is MCF-7^wt cells. Put plainly: Fluorescent microscopy of contrast agent uptake. The class given is cell-based, Human. The conditions noted are these: 0.5 mg/ml for 20 min. How it is done: as §1, §2
In data set [8] the test system is MCF-7^adr cells. Put plainly: Confocal microscopy of contrast agent with DAPI nuclei staining. It is filed as cell-based, Human. The conditions noted are these: MDR cells, 10 μg/ml for 30 min. The procedure:
(§5) Confocal microscopy. MCF-7^wt and MCF-7^adr cell lines were separately seeded in each 4-chamber glass slide (Nalge Nunc International Corp., Naperville, Ill., U.S.A.). Cells were incubated with 250 μl of Tat-GdDOTA-TAMRA (10 μg/ml) for 30 min in the 5% CO2 incubator. Cell nuclei were stained with DAPI ([…]) for 5 min. Cells were fixed with 3% paraformaldehyde for 15 min, and mounted under a coverslip following removal of plastic chambers. Confocal studies were performed with an inverted Zeiss LSM 410 confocal microscope (Carl Zeiss AG, Jena, Germany) using a 40× water immersion lens. In vitro MRI study. […] A saturation recovery snapshot-FLASH pulse sequence with an excitation pulse flip angle of 10 degrees, an echo time of 1.245 ms, and ten T1, saturation recovery delays (50, 100, 250, 500, 1,000, 1,500, 2,000, 3,000, 5,000, 12,000 ms) were used (Bhujwalla, Z. M., Artemov, D., Natarajan, K., Ackerstaff, E. & Solaiyappan, M., “Vasuclar Differences Detected by MRI for Metastatic Versus Nonmetastatic Breast and Prostate Cancer Xenografts”, Neoplasia 3, 143-153 (2002)). Quantitative T1, maps of the samples were reconstructed using custom-written software in the IDL programming environment Research Systems Inc., Boulder, Colo., U.S.A.) that runs on Linux workstations. […]

In data set [9] the test system is MCF-7^wt cells. The data set is described as above. It is filed as cell-based, Human. The conditions noted are these: wild type cells, 10 μg/ml for 30 min. The procedure: as §5
The test system of data set [10] is MCF-7^adr cells. Put plainly: Flow cytometry of rhodamine 123 uptake (double staining with anti-P-gp). The class given is cell-based, Human. The conditions noted are these: 30 min incubation.
From the text: as §3

Data set [11] deals with MCF-7^wt cells. The description is as above. It is filed as cell-based, Human. The conditions noted are these: 30 min incubation.
From the text: as §3

Where [12] appears, read: MCF-7^adr, 0.5 mg/ml for 20 min.

On to `COC[C@H]1O[C@@H]2O[C@H]3[C@H](O)[C@@H](OC)[C@@H](O[C@H]4[C@H](O)[C@@H](OC)[C@@H](O[C@H]5[C@H](O)[C@@H](OC)[C@@H](O[C@H]6[C@H](O)[C@@H](OC)[C@@H](O[C@H]7[C@H](O)[C@@H](OC)[C@@H](O[C@H]8[C@H](O)[C@@H](OC)[C@@H](O[C@H]1[C@H](O)[C@H]2OC)O[C@@H]8COC)O[C@@H]7COC)O[C@@H]6COC)O[C@@H]5COC)O[C@@H]4COC)O[C@@H]3COC` [DMCD, Heptakis-(2,6-di-O-methyl)-β-cyclodextrin, reference compound], for which the “retention of Tat-GdDOTA-TAMRA conjugates after MDR inhibitor pre-treatment (microscopy)” value in the data set on MCF-7^adr cells [1] (MCF-7^adr pre-treated with inhibitor for 20 min) is recorded as “high retention”. Further, the “uptake of Tat-GdDOTA-TAMRA after MDR inhibitor pre-treatment (FACS)” value with MCF-7^adr cells [2] (MCF-7^adr pre-treated with inhibitor) was “recovered almost to the level typical for wild type cells”.
For the compound `O=C([O-])CN(CCN(CC(=O)[O-])CC(=O)O)CCN(CC(=O)[O-])CC(=O)O.[Gd+3]` [GdDTPA], in [3], the T1 relaxation time was approximately 25 ms and the T2 relaxation time is listed as approximately 25 ms.
Take `[C-]#[N+]CC(C)(C)OC.[C-]#[N+]CC(C)(C)OC.[C-]#[N+]CC(C)(C)OC.[C-]#[N+]CC(C)(C)OC.[C-]#[N+]CC(C)(C)OC.[C-]#[N+]CC(C)(C)OC.[Tc]` [[^99mTc]SESTAMIBI]: in the data set on wild type KB tumor, the retention in tumor result was “retained”.
For “HIV-1 Tat basic domain peptide-GdDOTA-carboxytetramethylrhodamine conjugates [Tat-GdDOTA-TAMRA]”, in data set [4], the “specific T1 relaxivity” value worked out at 4.9 s/mM. Moreover, the T1 with MCF-7^adr cells [5] (MCF-7^adr cells, 0.5 mg/ml agent for 20 min, 9.4T MRI, averaged T1) stood at 2.05 ± 0.06 s; in the data set on MCF-7^wt cells [6] (MCF-7^wt cells, 0.5 mg/ml agent for 20 min, 9.4T MRI, averaged T1) it was 1.79 ± 0.02 s. Moreover, the “T1 reduction (ΔT1)” value with MCF-7^adr cells [5] (MCF-7^adr, treated vs control (Table 1 columns 6 and 7)) came to 0.3 ± 0.11 s; in the data set on MCF-7^wt cells [6] (MCF-7^wt, treated vs control (Table 1 columns 2 and 3)), 0.54 ± 0.11 s. The “effect on T1 relaxation time” value with MCF-7^adr cells [5] (MDR cells treated with the conjugates alone) is listed as “almost no decrease”; in the data set on MCF-7^wt cells [6] (wild type cells, 0.5 mg/ml), “significantly decreased; also recorded: significantly reduced”. In addition, in the data set on MCF-7^adr cells [1] (setting [12]), the “fluorescence detected by microscopy” value was “Lower or no fluorescence”. The “uptake by fluorescence microscopy” value in the data set with MCF-7^wt cells [7] is reported as “Efficient uptake”. The “agent delivered into cells by FACS, in comparison to MCF-7^wt” value in the data set with MCF-7^adr cells [2] (setting [12]) is recorded as “significantly lower”. For the same compound, the “intracellular localization (confocal)” value in the data set on MCF-7^adr cells [8] was “significantly less compound and less co-localization with nuclei”; with MCF-7^wt cells [9], “co-localized with nuclei”.
With rhodamine 123, the results for the “accumulation of rhodamine 123” value with MCF-7^adr cells [10] and with MCF-7^wt cells [11] were “reduced accumulation” and “efficient accumulation”, respectively.

The record behind these values is patent publication US20090220432A1, “Imaging agents and methods of using same for detecting multidrug resistance in cancer” (The Johns Hopkins University, priority 2005, published 2009).
